From patent US9468208B2, “Disease control with tick phospholipase A2” (The United States of America, as represented by the …, priority 2009, dated 2016)

What was measured:
[1] = system: B31 B. burgdorferi isolates; test: B. burgdorferi viability, live/dead BacLight staining counts; type: cell-based, Borrelia burgdorferi; details: 35° C., BSK-H, starting 155 live spirochetes per field
Protocol: Evaluation of PLA2 protein regulation of B. burgdorferi viability. Analyses of PLA2 protein is performed essentially as described by Ledin, K. E., et al., Med. Vet. Entomol., 2005; 19(1):90-95, the contents of which are incorporated herein by reference. Frozen stocks of low-passage B31 B. burgdorferi isolates (Shelter Island, N.Y.) are reconstituted in BSK-H culture medium and maintained at 35° C. to log phase (Piesman, 1993). Spirochete cultures are diluted with BSK-H to a density of 4.7×10^7 viable spirochetes per mL as counted in a Petroff-Hauser chamber under dark-field microscopy, and distributed in 15 μL aliquots into 0.7 mL tubes for a total of 7.05×10^5 spirochetes per tube. A mean starting concentration of 155 live spirochetes per field is assessed prior to the addition of specific treatments. Each 15 μL aliquot of spirochetes in BSK-His treated with either 15 μL of sterile PBS, 15 μL of 1.33 mg/mL pilocarpine (based on the mid-range of pilocarpine found in previous analysis of tick saliva, (Ribeiro et al., 2004) in sterile PBS, or 15 μL of tick saliva, and incubated at 35° C. 10 μL samples taken from each of 10 prepared cultures and assessed for spirochete survival at 0, 24 and 48 h. Time points for spirochete survival assessment are chosen based on previous observations of post-feeding decreases in spirochete-positive ticks (Ryder et al., 1992). […]

[2] = system: B. burgdorferi; test: Borreliacidal assay of saliva alone versus saliva plus phospholipase A2 inhibitor OPC; type: cell-based, Borrelia burgdorferi; details: 24 hrs, A. americanum saliva plus OPC 5-40 μM; culture controls 79
Protocol: Gel filtration fractionation of A. americanum saliva produces individual fractions with borreliacidal activity. Saliva is fractionated into 11 molecular weight pools by gel filtration and then tested by a borreliacidal assay as described by Zeidner, et al. 2009. Briefly, A. americanum saliva is size fractionated on a Superdex 200 column run with 25 mM NaCl dissolved in 5 mM HEPES (pH 7.6) at a flow rate of 0.5 ml per minute. The separation is monitored at […]. Fractions are collected at 1 minute intervals into siliconized eppendorf tubes. Each collected fraction is subsequently concentrated to 100 μl using a SpeedVac. 50 μl aliquots of the fractions are pooled according to the major molecular weight peaks at between 2 and 10 fractions per pool. Each pool is subsequently concentrated to 50 μl using Micron-3K filters (Millipore, Billerica, Mass.).
Inhibition of A. americanum borreliacidal activity using oleyloxyethyl phosphorylcholine (OPC) identifies phospholipase A2 as an active component of A. americanum saliva. The borreliacidal assay of Example 6 is performed comparing saliva alone with saliva plus the phospholipase A2 inhibitor OPC. […]

Structure (SMILES)	average number of live spirochetes (mean) ([1]; 24 h post-exposure)	average number of live spirochetes (mean) ([1]; 48 h post-exposure)	percent control live spirochetes [2]
CC[C@@H]1C(=O)OC[C@@H]1Cc1cncn1C [pilocarpine]	82.1 counts per 10 high powered (10	58.2 counts per 10 high powered (10	–
CCCCCCCC/C=C\CCCCCCCCOCCOP(=O)([O-])OCC[N+](C)(C)C [OPC, oleyloxyethyl phosphorylcholine]	–	–	76-78%
